# Assays:
# [1] = test system: Salmonella typhimurium; test: Mutagenicity in Salmonella typhimurium TA100 at 500 ug/plate after 72 hrs by Ames test; format: toxicity, organism-based; settings: salmonella enterica subsp. enterica serovar typhimurium
# [2] = test system: Mus musculus; test: In vivo inhibition of PI3Kalpha in po dosed athymic BALB/c nude mouse xenografted with human NCI-H460 cells administered as single dose via gavage after 2 to 24 hrs; format: functional, organism-based
# [3] = test system: Salmonella typhimurium; test: Mutagenicity in Salmonella typhimurium TA97 at 500 ug/plate after 72 hrs by Ames test; format: toxicity, organism-based; settings: salmonella enterica subsp. enterica serovar typhimurium
# [4] = in vivo; settings: athymic BALB/c nude, mouse, plasma, po, 10 mg/kg
# [5] = test system: MGC-803; test: Antitumor activity against human MGC803 cells xenografted in BALB/c nude mouse assessed as tumor growth inhibition at 5 mg/kg, po administered once daily for 18 days measured at post last dose relative to control; format: functional; settings: MGC-803, po, 432 h, read-out: TGI
SMILES,Activity [1],IC90 [2] [ng/mL],"IC50 ([2]; Mus musculus, BALB/c, NCI-H460) [ng/mL]",Activity [3],AUC(0-t) at 24 h [4] [ng·h/mL],inhibition in vivo at 5 mg/kg [5] [%]
CNc1nc(C)c2cc(-c3cnc(OC)c(NS(=O)(=O)c4ccc(F)cc4F)c3)cc(OC3CCOCC3)c2n1,Toxic,4,0.8,Toxic,5460,–
COc1ncc(-c2cc(O[C@@H]3CCOC3)c3nc(N)nc(C)c3c2)cc1NS(=O)(=O)c1ccc(F)cc1F,–,–,–,–,–,55.1
